“And” between values parts separate entries of the source, which are not always exact repeats. Identical values can stand only once.
Tested on: SW 1271 complex spheroids, viability
Experiment: Anticancer human tumor SW 1271 cell line growth inhibition [LSD1];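 note: spheroids exposed to agents for 7 days before luminescence read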;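 for viability, T/C: 100% = DMSO vehicle control viability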
Conditions: for viability, T/C: stronger effect = lower value; active = viability on the fitted dose curve at most 10% of control; inactive = the rest
Summary of the method: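 Drug combinations with the LSD1 inhibitor iadademstat tested on tumor cells co-cultured as spheroids with endothelial cells and mesenchymal stem cells. Concentrations descended in half-log increments from clinical Cmax or 10 microM.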

[1] = curve of first compound, second compound 0.1 µM
[2] = curve of first compound, second compound 0.316 µM
[3] = curve of first compound, second compound 1 µM
[4] = curve of first compound, second compound 3.16 µM
[5] = curve of first compound, second compound 10 µM
[6] = second compound 0.1 µM, first compound 0.0316 µM
[7] = second compound 0.1 µM, first compound 0.1 µM
[8] = second compound 0.1 µM, first compound 0.316 µM
[9] = second compound 0.1 µM, first compound 1 µM
[10] = second compound 0.1 µM, first compound 3.16 µM
[11] = second compound 0.1 µM, first compound 10 µM
[12] = second compound 0.316 µM, first compound 0.0316 µM
[13] = second compound 0.316 µM, first compound 0.1 µM
[14] = second compound 0.316 µM, first compound 0.316 µM
[15] = second compound 0.316 µM, first compound 1 µM
[16] = second compound 0.316 µM, first compound 3.16 µM
[17] = second compound 0.316 µM, first compound 10 µM
[18] = second compound 1 µM, first compound 0.0316 µM
[19] = second compound 1 µM, first compound 0.1 µM
[20] = second compound 1 µM, first compound 0.316 µM
[21] = second compound 1 µM, first compound 1 µM
[22] = second compound 1 µM, first compound 3.16 µM
[23] = second compound 1 µM, first compound 10 µM
[24] = second compound 3.16 µM, first compound 0.0316 µM
[25] = second compound 3.16 µM, first compound 0.1 µM
[26] = second compound 3.16 µM, first compound 0.316 µM
[27] = second compound 3.16 µM, first compound 1 µM
[28] = second compound 3.16 µM, first compound 3.16 µM
[29] = second compound 3.16 µM, first compound 10 µM
[30] = second compound 10 µM, first compound 0.0316 µM
[31] = second compound 10 µM, first compound 0.1 µM
[32] = second compound 10 µM, first compound 0.316 µM
[33] = second compound 10 µM, first compound 1 µM
[34] = second compound 10 µM, first compound 3.16 µM
[35] = second compound 10 µM, first compound 10 µM

O=C(C=Cc1cccc(S(=O)(=O)Nc2ccccc2)c1)NO + NC1CC1c1ccc(-c2cccc(O)c2)cc1
68.1 nM: IC50 [5]
62.9 nM: IC50 [2]
active: viability, T/C (second compound 0.1 µM, first compound 0.949 µM) 7.5% | viability, T/C (second compound 0.1 µM, first compound 3 µM) 0.27% | viability, T/C (second compound 0.316 µM, first compound 0.949 µM) 6.95% | viability, T/C (second compound 0.316 µM, first compound 3 µM) 0.16% | viability, T/C (second compound 1 µM, first compound 0.949 µM) 6.33% | viability, T/C (second compound 1 µM, first compound 3 µM) 0.7% | viability, T/C (second compound 3.16 µM, first compound 0.949 µM) 6.89% | viability, T/C (second compound 3.16 µM, first compound 3 µM) 0.2% | viability, T/C (second compound 10 µM, first compound 0.949 µM) 5.74% | viability, T/C (second compound 10 µM, first compound 3 µM) 0.36%
55.3 nM: IC50 [3]
98.2 nM: IC50 [1]
60 nM: IC50 [4]
inactive: viability, T/C (second compound 0.1 µM, first compound 0.00949 µM) 74.5% | viability, T/C (second compound 0.1 µM, first compound 0.03 µM) 69% | viability, T/C (second compound 0.1 µM, first compound 0.0949 µM) 51.8% | viability, T/C (second compound 0.1 µM, first compound 0.3 µM) 17.9% | viability, T/C (second compound 0.316 µM, first compound 0.00949 µM) 70.3% | viability, T/C (second compound 0.316 µM, first compound 0.03 µM) 61.8% | viability, T/C (second compound 0.316 µM, first compound 0.0949 µM) 44% | viability, T/C (second compound 0.316 µM, first compound 0.3 µM) 17.4% | viability, T/C (second compound 1 µM, first compound 0.00949 µM) 75.7% | viability, T/C (second compound 1 µM, first compound 0.03 µM) 60.1% | viability, T/C (second compound 1 µM, first compound 0.0949 µM) 41.8% | viability, T/C (second compound 1 µM, first compound 0.3 µM) 14.3% | viability, T/C (second compound 3.16 µM, first compound 0.00949 µM) 72.7% | viability, T/C (second compound 3.16 µM, first compound 0.03 µM) 58.4% | viability, T/C (second compound 3.16 µM, first compound 0.0949 µM) 45.6% | viability, T/C (second compound 3.16 µM, first compound 0.3 µM) 14.1% | viability, T/C (second compound 10 µM, first compound 0.00949 µM) 67.1% | viability, T/C (second compound 10 µM, first compound 0.03 µM) 59.9% | viability, T/C (second compound 10 µM, first compound 0.0949 µM) 46.5% | viability, T/C (second compound 10 µM, first compound 0.3 µM) 17.6%

CC1(C)CCC(CN2CCN(c3ccc(C(=O)NS(=O)(=O)c4ccc(NCC5CCOCC5)c([N+](=O)[O-])c4)c(Oc4cnc5[nH]ccc5c4)c3)CC2)=C(c2ccc(Cl)cc2)C1
2170 nM and 3600 nM: IC50 (curve of compound)
active: viability, T/C (compound 10 µM) 0.45% and 4.57%
inactive: viability, T/C (compound 0.0316 µM) 93.1% and 103% | viability, T/C (compound 0.1 µM) 97.7% and 112% | viability, T/C (compound 0.316 µM) 87.7% and 98.3% | viability, T/C (compound 1 µM) 101% and 102% | viability, T/C (compound 3.16 µM) 28.1% and 55.8%

COc1ccc([C@@H](O)c2cc(-c3ncnc4cc(N5CCOCC5)ccc34)c(F)cc2Cl)nn1 + NC1CC1c1ccc(-c2cccc(O)c2)cc1
inactive: viability, T/C [6] 78.6% | viability, T/C [7] 79.9% | viability, T/C [8] 55% | viability, T/C [9] 44.4% | viability, T/C [10] 31% | viability, T/C [11] 21.9% | viability, T/C [12] 76.4% | viability, T/C [13] 76.8% | viability, T/C [14] 52.2% | viability, T/C [15] 38% | viability, T/C [16] 37.3% | viability, T/C [17] 22.1% | viability, T/C [18] 72.9% | viability, T/C [19] 76.6% | viability, T/C [20] 60.3% | viability, T/C [21] 43.7% | viability, T/C [22] 31.7% | viability, T/C [23] 26.4% | viability, T/C [24] 69.5% | viability, T/C [25] 64.8% | viability, T/C [26] 49.2% | viability, T/C [27] 38.5% | viability, T/C [28] 30.5% | viability, T/C [29] 19.7% | viability, T/C [30] 60.5% | viability, T/C [31] 58.4% | viability, T/C [32] 50.3% | viability, T/C [33] 40.2% | viability, T/C [34] 27.5% | viability, T/C [35] 20.5%
463 nM: IC50 [2]
664 nM: IC50 [3]
616 nM: IC50 [1]
351 nM: IC50 [5]
355 nM: IC50 [4]

NC1CC1c1ccc(-c2cccc(O)c2)cc1 (stereo not given)
> 10000 nM: IC50 (compound alone, run of 02/21/2022)
inactive: viability, T/C (compound 0.1 µM) 86.2% | viability, T/C (compound 10 µM) 63.2% [middle of 25 runs]

O=C(C=Cc1cccc(S(=O)(=O)Nc2ccccc2)c1)NO
inactive: viability, T/C (compound 0.00949 µM) 89.7% and 88.1% | viability, T/C (compound 0.03 µM) 74.9% and 70.5% | viability, T/C (compound 0.0949 µM) 57.1% and 58.1% | viability, T/C (compound 0.3 µM) 19.1% and 23.3%
9.01% and 12.3%: viability, T/C (compound 0.949 µM)
228 nM and 109 nM: IC50 (curve of compound)

COc1cc(Nc2ncc3c(n2)-c2ccc(Cl)cc2C(c2c(F)cccc2OC)=NC3)ccc1C(=O)O
inactive: viability, T/C (compound 0.00316 µM) 92.2% and 73.8% | viability, T/C (compound 0.01 µM) 86.8% and 78.9% | viability, T/C (compound 0.0316 µM) 72.8% and 73.9% | viability, T/C (compound 0.1 µM) 58.6% and 59% | viability, T/C (compound 0.316 µM) 42.5% and 36.9% | viability, T/C (compound 1 µM) 14.1% and 15.6%
179 nM and 164 nM: IC50 (curve of compound)

CC(C)c1c(-c2ccccc2)nc2c(C#N)c[nH]n2c1=O + NC1CC1c1ccc(-c2cccc(O)c2)cc1
9230 nM: IC50 [4]
> 10000 nM: IC50 [1] | IC50 [2] | IC50 [3] | IC50 [5]
inactive: viability, T/C [6] 71.8% | viability, T/C [7] 86% | viability, T/C [8] 78.7% | viability, T/C [9] 77.5% | viability, T/C [10] 73.2% | viability, T/C [11] 72.9% | viability, T/C [12] 74.7% | viability, T/C [13] 70.4% | viability, T/C [14] 80.9% | viability, T/C [15] 52.4% | viability, T/C [16] 58.5% | viability, T/C [17] 61.6% | viability, T/C [18] 66.4% | viability, T/C [19] 96.2% | viability, T/C [20] 78.4% | viability, T/C [21] 75% | viability, T/C [22] 58.6% | viability, T/C [23] 61.3% | viability, T/C [24] 70.5% | viability, T/C [25] 68.4% | viability, T/C [26] 70% | viability, T/C [27] 58.2% | viability, T/C [28] 58.9% | viability, T/C [29] 49.2% | viability, T/C [30] 56.6% | viability, T/C [31] 63% | viability, T/C [32] 82.6% | viability, T/C [33] 61.6% | viability, T/C [34] 50.8% | viability, T/C [35] 54.1%

CC(C)CC(NC(=O)CNC(=O)c1cc(Cl)ccc1Cl)B1OC(=O)CC(CC(=O)O)(C(=O)O)O1 (stereo not given)
6.54% and 16.7%: viability, T/C (compound 0.01 µM)
4.78 nM and 5.84 nM: IC50 (curve of compound)
inactive: viability, T/C (compound 0.000316 µM) 99.2% and 97.3% | viability, T/C (compound 0.001 µM) 91.3% and 86.2% | viability, T/C (compound 0.00316 µM) 74.4% and 88%
active: viability, T/C (compound 0.0316 µM) 0.32% and 0.39% | viability, T/C (compound 0.1 µM) 0.31% and 0.4%

CC(C)CC(NC(=O)C(Cc1ccccc1)NC(=O)c1cnccn1)B(O)O (stereo not given) + NC1CC1c1ccc(-c2cccc(O)c2)cc1
< 0.316 nM: IC50 [1] | IC50 [2] | IC50 [3] | IC50 [4] | IC50 [5]
active: viability, T/C (second compound 0.1 µM, first compound 0.000316 µM) 2.9% | viability, T/C (second compound 0.1 µM, first compound 0.001 µM) 0.1% | viability, T/C (second compound 0.1 µM, first compound 0.00316 µM) 0.1% | viability, T/C (second compound 0.1 µM, first compound 0.01 µM) 0.28% | viability, T/C [6] 0.2% | viability, T/C [7] 0.25% | viability, T/C (second compound 0.316 µM, first compound 0.000316 µM) 3.44% | viability, T/C (second compound 0.316 µM, first compound 0.001 µM) 0.11% | viability, T/C (second compound 0.316 µM, first compound 0.00316 µM) 0.09% | viability, T/C (second compound 0.316 µM, first compound 0.01 µM) 1.18% | viability, T/C [12] 0.59% | viability, T/C [13] 0.2% | viability, T/C (second compound 1 µM, first compound 0.000316 µM) 2.62% | viability, T/C (second compound 1 µM, first compound 0.001 µM) 0.2% | viability, T/C (second compound 1 µM, first compound 0.00316 µM) 0.37% | viability, T/C (second compound 1 µM, first compound 0.01 µM) 4.1% | viability, T/C [18] 0.05% | viability, T/C [19] 0.13% | viability, T/C (second compound 3.16 µM, first compound 0.000316 µM) 2.05% | viability, T/C (second compound 3.16 µM, first compound 0.001 µM) 0.64% | viability, T/C (second compound 3.16 µM, first compound 0.00316 µM) 0.12% | viability, T/C (second compound 3.16 µM, first compound 0.01 µM) 4.7% | viability, T/C [24] 0.14% | viability, T/C [25] 0.19% | viability, T/C (second compound 10 µM, first compound 0.000316 µM) 6.62% | viability, T/C (second compound 10 µM, first compound 0.001 µM) 0.5% | viability, T/C (second compound 10 µM, first compound 0.00316 µM) 0.15% | viability, T/C (second compound 10 µM, first compound 0.01 µM) 0.72% | viability, T/C [30] 0.12% | viability, T/C [31] 0.19%

From PubChem BioAssay AID1918941 (Molecular Pharmacology Branch, DTP, NCI, 2023)
